Data on 23 compounds can be found in patent US11572369B2, “Bicyclic pyridine compositions and methods of using the same for cancer therapy” (UNIVERSITY OF SOUTH CAROLINA, priority 2019, dated 2023).

Each structure is given as a SMILES string. pIC50: −log10 of the molar value. Where two headings read alike, the source gives them in different places.

The subject of one series is CDK8/19. In words: NFκB Activity Assay (NFκB luciferase reporter, parental 293 cells). It counts as cell-based. A general note: A reporter such as luciferase makes a cellular process visible.
A further series can be described thus: in vivo. As to conditions: female, CD-1, mouse, serum, po.
The subject of a further series is MV4-11 cells. In words: MV4-11-Luc proliferation assay. As to conditions: Homo sapiens, MV4-11, read-out: Inhibition Potency MV4-11-Luc Assay.
The test system of series [1] is PSA expression in CRPC cell line C4-2. In words: PSA expression in C4-2 cell culture supernatant. It counts as cell-based. As to conditions: C4-2 culture supernatant, 4-day treatment, FBS-supplemented regular media, read-out: IC50, suppression of PSA expression. An excerpt:
CDK8/19 inhibition decreases the expression of certain androgen-receptor (AR) inducible genes including PSA, the most common marker of prostate cancer, and the growth of castration-refractory prostate cancers (CRPC).

The test system of series [2] is alkaline phosphatase (ALPase) in bone marrow stromal cell line ST2. As to conditions: cited from earlier work; for ALP activity Assay EC200: concentration that enhances ALPase activity to 200% of control, ST2 cells, Saito (2013).
For series [3] the following is noted: Saito, 2013; cited from earlier work.
In series [4] the test system is NFκB activation in CDK8/19-deficient cells. As to the kind of experiment: NFκB reporter assay in CDK8/19 double-knockout 293 reporter cells. As to conditions: CDK8/19 double-knockout reporter cells.
A short description of the next series: Mouse PK, oral 1 mg/kg. It counts as in vivo. As to conditions: female, FVB, serum, mice, oral (gavage) 1 mg/kg; for bioavailability: read-out: Bioavailability (F %).
Series [5] concerns MYC-CAP-CR cells. In words: Short-term cell proliferation assay, MYC-CAP-CR. As to conditions: androgen-containing media. It counts as cell-based, murine.
The subject of series [6] is 4T1 murine triple-negative breast cancer. In words: 4T1 TNBC lung metastasis survival after primary tumor removal. The series is classed as in vivo, mouse. As to conditions: medicated food (350 ppm) plus one oral dose 50 mg/kg after removal of primary tumor.
A further series in a line: Mouse PK, intravenous. As to conditions: female FVB mice, i.v. 0.5 mg/kg, mixture; for AUC / C0 / Vd / half-life: mouse, serum, iv. It counts as in vivo. The protocol: Pharmacokinetics (PK) Assay. To measure mouse pharmacokinetics (PK), thienopyridine derivatives were dissolved in 5% dextrose and administered to female FVB mice at different dosing conditions; blood samples were collected at different time points and compound concentrations in the serum were measured by LC/MS/MS.

A short description of series [7]: Oral PK in female CD-1 mice, solution formulation. As to conditions: oral gavage in solution, 30 mg/kg (15u series) or 16/18 mg/kg (15w series).
For a further series, the system named is MYC-CaP-CR tumors. In words: MYC-CaP-CR subcutaneous tumors in intact FVB male mice. It counts as in vivo, mouse. As to conditions: intact (uncastrated) FVB male mice.
Series [8] concerns MYC-CAP-CR cells. In words: Long-term clonogenic assay, MYC-CaP-CR. It counts as cell-based, murine.
Where [9] appears, read: read-out: Inhibition Potency HEK293-NFkB-Luc Assay, read-out: Inhibition Potency HEK238-NFkB-Luc Assay.
Where [10] appears, read: parental 293-derived reporter cell line, read-out: NFκB activity Assay IC50.

Turning to `CN(C)C(=O)c1ccc(N2CCCN(c3ccnc4oc(C(N)=O)c(N)c34)CC2)cc1` [compound 6318], in the series with CDK8/19 (setting [9]), the pIC50 is < 6.00.
In turn, `CN(CCCO)C(=O)c1ccc(N2CCCN(c3ccnc4sc(C(N)=O)c(N)c34)CC2)cc1` [compound 6264, 3-amino-4-(4-(4-((3-hydroxypropyl)(methyl)carbamoyl)phenyl)-1,4-diazepan-1-yl)thieno[2,3-b]pyridine-2-carboxamide] showed an area under the curve AUC(0-t) in “in vivo” (25 mg/kg) of 470 ng·h/mL. Also, the figures for the pIC50 with CDK8/19 (setting [9]) and with MV4-11 cells were 7.43 and 7.51, respectively.
With `NC(=O)c1sc2nccc(N3CCCN(c4ccc(C(=O)NCCCO)cc4)CC3)c2c1N` [compound 6263], the pIC50 with CDK8/19 (setting [9]) is 6.77; in the series with MV4-11 cells, 7.08.
With `CN(C)C(=O)Cc1ccc(N2CCCN(c3ccnc4sc(C(N)=O)c(N)c34)CC2)cc1` [15w, 3-amino-4-(4-(4-(2-(dimethylamino)-2-oxoethyl)phenyl)-1,4-diazepan-1-yl)thieno[2,3-b]pyridine-2-carboxamide], the AUC(0-t) in the series “in vivo” (16 mg/kg) came out at 400 ng·h/mL. In addition, the pIC50 in series [1] (96 h) is 7.80. Besides, the “bone anabolic activity in a cell-based assay” value in [2] (Saito, 2013) is recorded as “highest bone anabolic activity”. For the same compound, the “ALP activity Assay EC200” value in [2] is reported as 6.6 nM. Besides, the pharmacokinetics entry in series [3] is given as “poor pharmacokinetics (PK) with low Cmax”. Also, the “effect on NFκB activation in CDK8/19-deficient cells” value in series [4] is listed as “no effect”. In addition, in the series on CDK8/19 (setting [9]), the pIC50 was 8.39. In “Mouse PK, oral 1 mg/kg”, this compound had an AUC of 29.2 ng·h/mL and a half-life of 18 min.
As for `CN(C)C(=O)c1ccc(CN2CCCN(c3ccnc4sc(C(N)=O)c(N)c34)CC2)cc1` [compound 6269], the pIC50 in the series on CDK8/19 (setting [9]) was 6.00; with MV4-11 cells it was 6.17.
For `CN(C)C(=O)c1ccc(N2CCCN(c3ccnc4sc(C(N)=O)cc34)CC2)cc1` [compound 6296], the pIC50 in the series on CDK8/19 (setting [9]) is < 6.00.
`CN1CCN(C(=O)c2ccc3cc(CCNc4ncnc5ccc(C#N)cc45)ccc3c2)CC1` [Senexin B, reference compound]: the pIC50 in [1] was 6.59. Further, the MYC-CAP-CR cell growth entry in the series on MYC-CAP-CR cells [5] is given as “little effect”. For the same compound, the “mouse survival of the metastatic disease” value in series [6] is reported as “statistically significant but moderate increase in survival”.
For the compound `CN1CCN(C(=O)c2ccc(N3CCCN(c4ccnc5sc(C(N)=O)c(N)c45)CC3)cc2)CC1` [compound 6268], the pIC50 is 7.51 in the series with CDK8/19 (setting [9]) and 7.38 with MV4-11 cells.
As for `COc1ccc(N2CCCN(c3ccnc4sc(C(N)=O)c(N)c34)CC2)cc1` [15q], the “ALP activity Assay EC200” value in [2] is 115.4 nM. Moreover, the pIC50 in the series on CDK8/19 (setting [10]) was 7.37.
On to `CN(C)C(=O)c1ccc(N2CCCN(c3ccnc4sc(C#N)c(N)c34)CC2)cc1` [compound 6298], for which the pIC50 in the series with CDK8/19 (setting [9]) was 6.42.
On to `NC(=O)c1sc2nccc(N3CCCN(c4ccc(C(=O)N5CCNCC5)cc4)CC3)c2c1N` [compound 6271], for which the pIC50 in the series with CDK8/19 (setting [9]) was 6.63; in the series on MV4-11 cells it was 7.10.
On to `CN(CCCNC(=O)OC(C)(C)C)C(=O)c1ccc(N2CCCN(c3ccnc4sc(C(N)=O)c(N)c34)CC2)cc1` [compound 6292], for which, in the series on CDK8/19 (setting [9]), the pIC50 is 6.23.
Regarding `CNC(=O)c1ccc(N2CCCN(c3ccnc4sc(C(N)=O)c(N)c34)CC2)cc1` [15v], in “Mouse PK, intravenous”, the Elimination rate was found to be 4.33 h⁻¹, the AUC is 61.2 ng·h/mL, the C0 came to 234 ng/mL and the Vd stood at 2.14 L/kg. Further, in “Mouse PK, intravenous”, the half-life was 9.6 min. In addition, the pIC50 in the series on CDK8/19 (setting [9]) was 7.64. In the series “Mouse PK, oral 1 mg/kg”, the exposure (AUC) was determined as 21.8 ng·h/mL, the Cmax was determined as 7.2 ng/mL, the half-life was 72 min and the bioavailability was found to be 18%.
Turning to `[2H]C([2H])([2H])N(C(=O)Cc1ccc(N2CCCN(c3ccnc4sc(C(N)=O)c(N)c34)CC2)cc1)C([2H])([2H])[2H]` [15w_D6, 3-amino-4-(4-(4-(2-(bis(methyl-d3)amino)-2-oxoethyl)phenyl)-1,4-diazepan-1-yl)thieno[2,3-b]pyridine-2-carboxamide], the AUC(0-t) in the series “in vivo” (16 mg/kg) amounted to 770 ng·h/mL. Further, in the series on CDK8/19 (setting [9]), the pIC50 was 8.42. For the same compound, the “PK (AUC 0-8 h) versus undeuterated parent” value in series [7] is reported as “much improved the PK”.
`NC(=O)c1sc2nccc(N3CCCN(c4ccccc4)CC3)c2c1N` [15k]: in the series “Mouse PK, intravenous”, the Elimination rate amounted to 4.59 h⁻¹, the AUC was found to be 40.8 ng·h/mL, the C0 came to 168 ng/mL and the volume of distribution (Vd) was determined as 2.98 L/kg. Besides, the half-life in the series “Mouse PK, intravenous” is 9 min. In the series “Mouse PK, oral 1 mg/kg”, the AUC amounted to 7.6 ng·h/mL, the half-life was 18 min and the bioavailability amounted to 9%.
Take `CN(C)C(=O)c1ccc(N2CCCN(c3ccnc4[nH]c(C(N)=O)cc34)CC2)cc1` [compound 6284]: the pIC50 with CDK8/19 (setting [9]) is < 6.00.
On to `CNC(=O)c1ccc(N2C(=S)N(c3ccc(C#N)c(C(F)(F)F)c3)C(=O)C2(C)C)cc1F` [enzalutamide], for which, in the series on MYC-CaP-CR tumors, the “tumor volume and weight” value is recorded as “modest effect”. Further, the MYC-CAP-CR cell growth result in the series with MYC-CAP-CR cells [5] is listed as “paradoxically stimulated the growth”. Besides, the MYC-CaP-CR colony formation entry with MYC-CAP-CR cells [8] is “decreased MYC-CaP-CR colony formation”.
`CN(C)C(=O)c1ccc(N2CCCN(c3ccnc4[nH]c(C(N)=O)c(N)c34)CC2)cc1` [compound 6307]: in the series with CDK8/19 (setting [9]), the pIC50 was < 6.00.
`CN(CCCN)C(=O)c1ccc(N2CCCN(c3ccnc4sc(C(N)=O)c(N)c34)CC2)cc1` [compound 6293]: in the series on CDK8/19 (setting [9]), the pIC50 was 7.30.
`CN1CCN(Cc2ccc(N3CCCN(c4ccnc5sc(C(N)=O)c(N)c45)CC3)cc2)CC1` [compound 6300, 3-amino-4-(4-(4-((4-methylpiperazin-1-yl)methyl)phenyl)-1,4-diazepan-1-yl)thieno[2,3-b]pyridine-2-carboxamide] registered an area under the curve AUC(0-t) in the series “in vivo” (30 mg/kg) of 210 ng·h/mL. Moreover, the pIC50 in the series on CDK8/19 (setting [9]) was 8.31.
On to `Cc1ccc(N2CCCN(c3ccnc4sc(C(N)=O)c(N)c34)CC2)cc1` [15n], for which the “ALP activity Assay EC200” value in [2] was 88.1 nM. For the same compound, the pIC50 in the series with CDK8/19 (setting [10]) is 7.42.
`[2H]C([2H])(C(=O)N(C)C)c1ccc(N2CCCN(c3ccnc4sc(C(N)=O)c(N)c34)CC2)cc1` [15w_D2, 3-amino-4-(4-(4-(2-(dimethylamino)-2-oxoethyl-1,1-d2)phenyl)-1,4-diazepan-1-yl)thieno[2,3-b]pyridine-2-carboxamide]: the AUC(0-t) in “in vivo” (18 mg/kg) is 380 ng·h/mL. Besides, in the series on CDK8/19 (setting [9]), the pIC50 was 8.06. The “PK (AUC 0-8 h) versus undeuterated parent” value in series [7] is on record as “did not improve the PK”.
In turn, `Cc1cc(N2CCCN(c3ccc(C(=O)N(C)C)cc3)CC2)c2c(N)c(C(N)=O)sc2n1` [compound 6304, 3-amino-4-(4-(4-(dimethylcarbamoyl)phenyl)-1,4-diazepan-1-yl)-6-methylthieno[2,3-b]pyridine-2-carboxamide] showed an AUC(0-t) in “in vivo” (16 mg/kg) of 2200 ng·h/mL. In addition, in the series on CDK8/19 (setting [9]), the pIC50 was 7.87.

Usually AUC(0-t) stands for exposure summed from dosing to a finite time, without extrapolation to infinity. As a reminder, the AUC is the area under the concentration-time curve, a measure of exposure. In general, half-life refers to the time needed for the level to fall by half in the phase considered. What is called Vd is a proportionality between amount in the body and measured concentration, not a real space. In general, Cmax refers to the highest concentration seen after dosing. As a reminder, the bioavailability is the share of a dose that reaches the circulation, judged against a reference dose that is usually intravenous.
